Columns and labels:
Type in all cases: physicochemical
[1] = Interfacial tension between aqueous solution and oil phase (spinning drop tensiometer)
Procedure: The interfacial tension between aqueous solutions of tested compounds and an oil phase were measured with a spinning drop tensiometer (DataPhysics). As the composition of crude oils may vary decane, dodecane, and hexadecane were used as model oils in order to study the range of application of the tested compounds.

[2] = Surface tension (DuNouy ring method) and critical micelle formation concentration
Procedure: The surface tension was measured as a function of the concentration of the surface active components using the DuNouy ring method (according to Din 53914). The critical micelle formation concentration (cmc) was derived in the usual manner from the measurement graph.
The salts used were NaCl and CaCl2 at a weight ratio of 9:1 NaCl/CaCl2.

[3] = Cloud point of conventional surfactants in saline water; settings: 1% in water having a salinity of 50.000 ppm NaCl
Procedure: For comparative purposes, two conventional surfactants were tested at a concentration of 1% in water having a salinity of 50.000 ppm NaCl and in the usual manner their cloud point was determined.

[4] = Modification of the wettability: contact angle of oil on oil wet polyethylene platelets; settings: for Contact angle: dodecane
Procedure: Polyethylene platelets (3 cm×2 cm) were use as hydrophobic model surfaces for oil wet rocks. As a first step, 5 μl decane or 5 μl dodecane were applied to the polyethylene platelets. The hydrophobic liquids spread on the hydrophobic surface. The contact angle between the oil and the polyethylene surface was measured using a usual contact angle measuring device (DataPhysics) and consequently a value of 0° was obtained. The oil wet platelets were submerged into an aqueous solution of 1 g/l by weight of the compound to be tested. […] The contact angle between oil and the polyethylene surface was measured as function of time. Furthermore, it was inspected visually whether oil droplets became detached from the surface.

[5] = 25 °C, brine NaCl/CaCl2 (9:1) 10,000 ppm
[6] = 25 °C, brine NaCl/CaCl2 (9:1) 100,000 ppm
[7] = 60 °C, brine NaCl/CaCl2 (9:1) 10,000 ppm
[8] = 60 °C, brine NaCl/CaCl2 (9:1) 100,000 ppm

Cloud point [3] [°C]	Substance	IFT after 60 min, 1 g/l of sample in aqueous phase, decane ([1]; 25 °C, brine 10,000 ppm) [mN/m]	IFT after 60 min, 1 g/l of sample in aqueous phase, decane ([1]; 25 °C, brine 100,000 ppm) [mN/m]	IFT after 60 min, 1 g/l of sample in aqueous phase, decane ([1]; 60 °C, brine 10,000 ppm) [mN/m]	IFT after 60 min, 1 g/l of sample in aqueous phase, decane ([1]; 60 °C, brine 100,000 ppm) [mN/m]	IFT after 60 min, 1 g/l of sample in aqueous phase, docecane ([1]; 25 °C, brine 10,000 ppm) [mN/m]	IFT after 60 min, 1 g/l of sample in aqueous phase, docecane ([1]; 60 °C, brine 10,000 ppm) [mN/m]	IFT after 60 min, 1 g/l of sample in aqueous phase, hexadecane ([1]; 25 °C, brine 10,000 ppm) [mN/m]	IFT after 60 min, 1 g/l of sample in aqueous phase, hexadecane ([1]; 60 °C, brine 10,000 ppm) [mN/m]	ST At 1 g/l ([2]; 25 °C, brine 10,000 ppm) [mN/m]	ST At 1 g/l ([2]; 25 °C, brine 100,000 ppm) [mN/m]	cmc [2, 5] [g/L]	cmc [2, 6] [g/L]	ST At 1 g/l ([2]; 60 °C, brine 10,000 ppm) [mN/m]	ST At 1 g/l ([2]; 60 °C, brine 100,000 ppm) [mN/m]	cmc [2, 7] [g/L]	cmc [2, 8] [g/L]	further results
–	Saccharose * 40 EO diester with C12/C18 fatty acid [Compound S2]	2.3	2.1	0.46	0.36	2.0	0.34	2.2	0.40	34.6	34.6	0.03	0.03	27.7	28.3	0.04	0.02	–
86	C13-alcohol+20 EO	–	–	–	–	–	–	–	–	–	–	–	–	–	–	–	–	–
87	C16/18-alcohol+80 EO	–	–	–	–	–	–	–	–	–	–	–	–	–	–	–	–	–
–	Saccharose* 20 EO monoester with C16/C18 fatty acid [Compound S1]	3.9	2.4	0.45	1.2	2.9	0.19	4.0	0.55	33.7	34.5	0.03	0.02	29.6	29.1	0.03	0.02	Interfacial tension (IFT) between water and hydrocarbons of different chain lengths, change on addition of wettability modifier ([1]; hydrocarbons of different chain lengths): decreases significantly; Contact angle ([4]; 25° C., brine 10,000 ppm + 1 g/l S1, time 0 min): 6 °; Contact angle ([4]; 25° C., brine 10,000 ppm + 1 g/l S1, time 30 min): 13 °; Contact angle ([4]; 25° C., brine 10,000 ppm + 1 g/l S1, time 45 min): 14 °; Contact angle ([4]; 25° C., brine 10,000 ppm + 1 g/l S1, time 60 min): 17 °; Contact angle ([4]; 25° C., brine 10,000 ppm + 1 g/l S1, time 90 min): 22 °; Contact angle ([4]; 25° C., brine 10,000 ppm + 1 g/l S1, time 180 min): beginning; Contact angle ([4]; 25° C., brine 100,000 ppm + 1 g/l S1, time 0 min): 7 °; Contact angle ([4]; 25° C., brine 100,000 ppm + 1 g/l S1, time 30 min): 26 °; Contact angle ([4]; 25° C., brine 100,000 ppm + 1 g/l S1, time 45 min): 74 °; Contact angle ([4]; 25° C., brine 100,000 ppm + 1 g/l S1, time 60 min): oil already detached; Time of contact after which oil is detached from the surface ([4]; 60° C.): 2 min; Contact angle ([4]; 60° C., brine 10,000 ppm + 1 g/l S1, time 60 min): beginning; Contact angle ([4]; 60° C., brine 100,000 ppm + 1 g/l S1, time 0 min): oil already

Source: patent publication US9689244B2, “Process for water wetting oil-wet surfaces” (BASF SE, priority 2012, dated 2017)
